# Results: ChEMBL document CHEMBL1201862, “PubChem BioAssay data set” (2004)
# Calls of active or inactive are those of the source.
# How the values were obtained:
# [1] = molecular target: Peroxisome proliferator-activated receptor gamma/Nuclear receptor coactivator 2 (Homo sapiens, UniProt P37231); test: (§1) TR-FRET dose response biochemical High Throughput Screening assay for agonists of the steroid receptor coactivator 2 (SRC-2) recruitment by the peroxisome proliferator-activated receptor gamma (PPAR gamma): non-selective agonists. [Related pubchem assays: 1297, 1032 ]; format: functional
# [2] = Luminescence Cell-Based Dose Retest to Confirm Inhibitors of Cancer Stem Cells. [Related pubchem assays (depositor defined):AID2717, AID2721]; format: functional; settings: Homo sapiens
# [3] = molecular target: Peroxisome proliferator-activated receptor gamma/Nuclear receptor coactivator 3 (Homo sapiens, UniProt P37231); test: as §1, with “3 (SRC-3)” for “2 (SRC-2)”, “1301 (Confirmation screen.), 1048 (Primary screen.)]” for “1297, 1032 ]”; format: functional
# Peroxisome proliferator-activated receptor gamma/Nuclear receptor coactivator 3, sequence (P37231 whole entry): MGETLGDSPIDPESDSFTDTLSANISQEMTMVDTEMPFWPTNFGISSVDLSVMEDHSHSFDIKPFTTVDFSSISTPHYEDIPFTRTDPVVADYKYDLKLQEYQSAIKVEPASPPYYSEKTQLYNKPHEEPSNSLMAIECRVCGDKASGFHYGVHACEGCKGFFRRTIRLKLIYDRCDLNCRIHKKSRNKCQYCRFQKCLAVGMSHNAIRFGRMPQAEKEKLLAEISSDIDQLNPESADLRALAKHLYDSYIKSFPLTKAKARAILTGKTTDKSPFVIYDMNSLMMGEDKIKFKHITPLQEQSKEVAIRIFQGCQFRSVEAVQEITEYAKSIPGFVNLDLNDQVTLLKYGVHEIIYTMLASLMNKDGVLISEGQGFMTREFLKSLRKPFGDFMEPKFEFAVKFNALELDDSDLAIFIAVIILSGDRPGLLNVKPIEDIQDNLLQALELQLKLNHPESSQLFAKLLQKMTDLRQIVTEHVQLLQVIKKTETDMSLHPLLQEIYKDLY
# Peroxisome proliferator-activated receptor gamma/Nuclear receptor coactivator 3, sequence (Q9Y6Q9 whole entry, further chain): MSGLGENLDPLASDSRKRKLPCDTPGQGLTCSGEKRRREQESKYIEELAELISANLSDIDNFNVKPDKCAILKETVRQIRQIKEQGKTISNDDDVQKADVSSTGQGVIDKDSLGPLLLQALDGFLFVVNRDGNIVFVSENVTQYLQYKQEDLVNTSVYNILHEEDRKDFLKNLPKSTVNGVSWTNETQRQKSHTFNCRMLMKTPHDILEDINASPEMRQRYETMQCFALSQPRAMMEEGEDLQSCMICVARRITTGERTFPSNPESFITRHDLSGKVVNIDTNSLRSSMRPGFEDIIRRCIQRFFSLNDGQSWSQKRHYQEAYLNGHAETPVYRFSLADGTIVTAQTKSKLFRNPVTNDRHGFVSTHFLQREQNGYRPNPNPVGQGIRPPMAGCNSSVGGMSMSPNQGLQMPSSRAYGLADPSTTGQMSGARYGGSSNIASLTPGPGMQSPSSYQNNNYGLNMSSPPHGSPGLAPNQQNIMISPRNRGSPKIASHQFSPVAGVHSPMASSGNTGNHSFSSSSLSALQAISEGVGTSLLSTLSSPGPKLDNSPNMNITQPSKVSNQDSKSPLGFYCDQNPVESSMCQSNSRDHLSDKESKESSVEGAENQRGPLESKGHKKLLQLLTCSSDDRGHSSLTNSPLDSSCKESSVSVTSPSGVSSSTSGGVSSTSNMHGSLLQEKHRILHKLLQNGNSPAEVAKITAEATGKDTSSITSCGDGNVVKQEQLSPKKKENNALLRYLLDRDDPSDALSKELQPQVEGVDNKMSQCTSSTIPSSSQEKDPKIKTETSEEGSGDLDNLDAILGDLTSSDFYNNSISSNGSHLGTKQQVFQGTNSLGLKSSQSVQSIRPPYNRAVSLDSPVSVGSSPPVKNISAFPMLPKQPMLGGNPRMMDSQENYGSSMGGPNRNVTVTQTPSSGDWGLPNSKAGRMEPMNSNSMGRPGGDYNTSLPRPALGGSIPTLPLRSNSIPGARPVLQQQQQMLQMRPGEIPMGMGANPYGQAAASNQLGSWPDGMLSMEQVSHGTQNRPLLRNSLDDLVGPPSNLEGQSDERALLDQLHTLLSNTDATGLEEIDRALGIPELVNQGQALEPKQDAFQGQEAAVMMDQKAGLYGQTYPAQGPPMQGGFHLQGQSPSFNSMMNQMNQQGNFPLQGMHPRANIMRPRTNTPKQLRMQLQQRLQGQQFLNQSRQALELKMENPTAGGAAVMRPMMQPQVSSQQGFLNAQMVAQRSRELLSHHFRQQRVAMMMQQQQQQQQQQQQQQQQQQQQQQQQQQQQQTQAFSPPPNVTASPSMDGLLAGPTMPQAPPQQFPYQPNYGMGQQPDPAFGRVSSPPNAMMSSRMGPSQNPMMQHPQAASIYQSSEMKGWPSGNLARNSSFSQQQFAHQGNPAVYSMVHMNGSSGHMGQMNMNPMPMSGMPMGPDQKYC
# [4] = molecular target: Peroxisome proliferator-activated receptor gamma/Nuclear receptor coactivator 1 (Homo sapiens, UniProt P37231); test: as §1, with “1 (SRC-1)” for “2 (SRC-2)”, “assays (depositor defined):AID1300, AID1808, AID504735, AID631]” for “assays: 1297, 1032 ]”; format: protein assay
# Cannabinoid receptor 2 [5] = molecular target: T1, Cannabinoid receptor 2 (Homo sapiens, UniProt P34972); test: SAR analysis of antagonists of the Cannabinoid Receptor 2 using an Image-Based Assay - Set 2. [Related pubchem assays (depositor defined):AID1961, AID1965]; format: functional
# T1 sequence (P34972 whole entry): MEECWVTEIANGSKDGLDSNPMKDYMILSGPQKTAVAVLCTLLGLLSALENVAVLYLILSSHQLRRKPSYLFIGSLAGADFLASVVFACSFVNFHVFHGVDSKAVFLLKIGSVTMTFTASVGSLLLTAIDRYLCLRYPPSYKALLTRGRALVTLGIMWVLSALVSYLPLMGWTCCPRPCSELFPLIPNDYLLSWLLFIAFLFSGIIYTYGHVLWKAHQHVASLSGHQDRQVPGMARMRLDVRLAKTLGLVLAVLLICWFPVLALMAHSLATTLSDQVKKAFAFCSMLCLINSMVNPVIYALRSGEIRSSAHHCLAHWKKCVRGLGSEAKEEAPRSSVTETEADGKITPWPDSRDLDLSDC
# [6] = molecular target: G-protein coupled receptor 55 (Homo sapiens, UniProt Q9Y2T6); test: SAR analysis of selective Agonists of GPR55 using an Image-Based Assay - Set 2. [Related pubchem assays (depositor defined):AID1961, AID1965]; format: functional
# G-protein coupled receptor 55, sequence (Q9Y2T6 whole entry): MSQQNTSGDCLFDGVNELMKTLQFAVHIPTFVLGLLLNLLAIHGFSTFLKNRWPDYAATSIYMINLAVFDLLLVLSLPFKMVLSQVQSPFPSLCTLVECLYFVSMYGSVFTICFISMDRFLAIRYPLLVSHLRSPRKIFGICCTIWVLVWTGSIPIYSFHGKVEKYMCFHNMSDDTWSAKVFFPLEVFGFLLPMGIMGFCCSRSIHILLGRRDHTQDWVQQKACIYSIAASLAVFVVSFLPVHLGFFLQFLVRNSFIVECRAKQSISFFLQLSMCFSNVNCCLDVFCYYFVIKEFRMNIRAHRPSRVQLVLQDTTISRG
# Cannabinoid receptor 1 [7] = molecular target: T2, Cannabinoid receptor 1 (Homo sapiens, UniProt P21554); test: SAR analysis of antagonists of the Cannabinoid Receptor 1 using an Image-Based Assay - Set 3. [Related pubchem assays (depositor defined):AID1961, AID1965]; format: functional
# T2 sequence (P21554 whole entry): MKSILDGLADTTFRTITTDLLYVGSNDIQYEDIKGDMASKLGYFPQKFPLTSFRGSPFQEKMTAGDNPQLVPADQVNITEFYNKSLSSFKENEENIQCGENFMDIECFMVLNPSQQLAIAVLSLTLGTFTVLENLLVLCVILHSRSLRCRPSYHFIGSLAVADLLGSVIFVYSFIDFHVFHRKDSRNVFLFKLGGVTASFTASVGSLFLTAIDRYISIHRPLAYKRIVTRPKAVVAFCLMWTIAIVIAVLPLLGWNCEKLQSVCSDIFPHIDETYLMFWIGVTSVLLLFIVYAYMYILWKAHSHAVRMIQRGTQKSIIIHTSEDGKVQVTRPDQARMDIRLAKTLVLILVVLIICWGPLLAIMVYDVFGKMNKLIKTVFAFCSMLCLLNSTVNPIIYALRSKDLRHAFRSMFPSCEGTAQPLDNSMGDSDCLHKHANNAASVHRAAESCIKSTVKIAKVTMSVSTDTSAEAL
# [8] = molecular target: T3, G-protein coupled receptor 35 (Homo sapiens, UniProt Q9HC97); test: SAR analysis of Antagonists of the GPR35 Receptor using an Image-Based Assay - Set 4. [Related pubchem assays (depositor defined):[…]]; format: functional
# T3 sequence (Q9HC97 whole entry): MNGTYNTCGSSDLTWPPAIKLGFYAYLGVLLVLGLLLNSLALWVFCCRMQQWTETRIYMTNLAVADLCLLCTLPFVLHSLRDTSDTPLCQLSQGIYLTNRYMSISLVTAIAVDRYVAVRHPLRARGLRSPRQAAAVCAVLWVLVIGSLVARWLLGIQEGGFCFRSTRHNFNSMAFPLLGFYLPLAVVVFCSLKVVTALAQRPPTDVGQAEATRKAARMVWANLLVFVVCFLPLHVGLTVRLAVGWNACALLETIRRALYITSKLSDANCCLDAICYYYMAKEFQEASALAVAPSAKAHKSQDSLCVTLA
# Cannabinoid receptor 2 [9] = molecular target: T1, Cannabinoid receptor 2; test: SAR analysis of agonists of the Cannabinoid Receptor 2 using an Image-Based Assay - Set 2. [Related pubchem assays (depositor defined):AID1961, AID1965]; format: functional
# [10] = molecular target: T3, G-protein coupled receptor 35; test: SAR analysis of Agonists of the GPR35 Receptor using an Image-Based Assay - Set 3. [Related pubchem assays (depositor defined):AID1961, AID1965]; format: functional
# Cannabinoid receptor 1 [11] = molecular target: T2, Cannabinoid receptor 1; test: SAR analysis of agonists of the Cannabinoid Receptor 1 using an Image-Based Assay - Set 3. [Related pubchem assays (depositor defined):AID1961, AID1965]; format: functional
# [12] = A small molecule screen for inhibitors of the PhoP region in Salmonella typhi (5) using purified and synthesized compounds. [Related pubchem assays (depositor defined):AID1850, AID1864, AID1985, AID2252, AID2384, AID2612, AID2811, AID434995]; format: functional
# [13] = molecular target: Sphingosine 1-phosphate receptor 4 (Homo sapiens, UniProt O95977); test: Late-stage fluorescence dose response cell-based assay to identify agonists of the Sphingosine 1-Phosphate Receptor 4 (S1P4): purchased compounds EC50. [Related pubchem assays (depositor defined):AID1509, AID1523, AID1563, AID1686, AID1701, AID1801]; format: functional
# Sphingosine 1-phosphate receptor 4, sequence (O95977 whole entry): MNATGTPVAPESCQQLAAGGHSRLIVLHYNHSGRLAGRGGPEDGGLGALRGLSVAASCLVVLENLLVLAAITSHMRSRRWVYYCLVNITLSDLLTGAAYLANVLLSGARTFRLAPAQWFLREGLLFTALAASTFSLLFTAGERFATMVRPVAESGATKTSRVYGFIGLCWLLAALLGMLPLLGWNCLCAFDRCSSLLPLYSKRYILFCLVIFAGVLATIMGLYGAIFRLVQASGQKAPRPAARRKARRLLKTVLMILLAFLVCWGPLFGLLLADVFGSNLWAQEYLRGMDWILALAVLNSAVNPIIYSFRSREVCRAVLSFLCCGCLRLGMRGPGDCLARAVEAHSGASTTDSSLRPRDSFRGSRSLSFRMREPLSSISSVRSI
# [14] = molecular target: Intestinal-type alkaline phosphatase (Homo sapiens, UniProt P09923); test: human intestinal alkaline phosphatase activators, dose response, biochemical, luminescence, uHTS hits (AID 463120); format: functional
# Intestinal-type alkaline phosphatase, sequence (P09923 whole entry): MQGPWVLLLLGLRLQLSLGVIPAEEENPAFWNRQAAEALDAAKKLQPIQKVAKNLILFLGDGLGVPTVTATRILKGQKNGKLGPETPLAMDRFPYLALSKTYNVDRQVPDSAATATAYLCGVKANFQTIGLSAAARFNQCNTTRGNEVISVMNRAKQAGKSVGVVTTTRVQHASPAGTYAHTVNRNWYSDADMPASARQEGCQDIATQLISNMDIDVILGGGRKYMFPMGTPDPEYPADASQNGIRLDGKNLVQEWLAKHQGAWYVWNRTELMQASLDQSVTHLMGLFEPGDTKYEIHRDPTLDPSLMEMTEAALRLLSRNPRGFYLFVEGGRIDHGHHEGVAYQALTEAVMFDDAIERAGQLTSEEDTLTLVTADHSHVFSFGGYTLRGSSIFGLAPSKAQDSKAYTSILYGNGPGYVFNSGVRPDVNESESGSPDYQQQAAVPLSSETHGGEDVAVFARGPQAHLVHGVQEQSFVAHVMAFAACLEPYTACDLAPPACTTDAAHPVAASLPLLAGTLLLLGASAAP
# 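For AC50 in this document: cells exposed to compound for roughly 70 hours or longer before luminescence read.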
smiles,measurement,setting,value
CSc1c(SCc2ccccc2)cnn(-c2ccccc2)c1=O,EC50,[1],10.7 µM (not active)
same,AC50,[2],2.51 µM (active)
same,EC50,[3],> 79.4 µM (not active)
same,EC50,[4],13.2 µM (inactive)
CCc1sc(C(=O)Nc2cc(S(=O)(=O)N3CCOCC3)ccc2OC)cc1C,IC50,Cannabinoid receptor 2 [5],> 32 µM (inactive)
same,EC50,[6],> 32 µM (inactive)
same,IC50,Cannabinoid receptor 1 [7],> 32 µM (inactive)
same,IC50,[8],> 32 µM (inactive)
same,EC50,Cannabinoid receptor 2 [9],> 32 µM (inactive)
same,EC50,[10],> 32 µM (inactive)
same,EC50,Cannabinoid receptor 1 [11],> 32 µM (inactive)
COc1cccc(NC(=O)N2CCCN(Cc3ccccc3F)C2)c1,IC50,[12],> 150 µM (active)
CCNC(=O)NC(=O)C(C)OC(=O)c1cc2c(C)nn(Cc3ccc(Cl)cc3)c2s1 (centres undefined),EC50,[13],> 50 µM (inactive)
COc1cc(/C=N\NS(=O)(=O)c2ccccc2)cc(OC)c1OC,EC50,[14],> 100 µM (inactive)
